Data published in patent publication US9556159B2, “Renin inhibitor” (MITSUBISHI TANABE PHARMA CORPORATION, priority 2012, dated 2017).

Molecular target: T1, Recombinant human renin (Homo sapiens, UniProt P00797)
T1 sequence (P00797 67-406): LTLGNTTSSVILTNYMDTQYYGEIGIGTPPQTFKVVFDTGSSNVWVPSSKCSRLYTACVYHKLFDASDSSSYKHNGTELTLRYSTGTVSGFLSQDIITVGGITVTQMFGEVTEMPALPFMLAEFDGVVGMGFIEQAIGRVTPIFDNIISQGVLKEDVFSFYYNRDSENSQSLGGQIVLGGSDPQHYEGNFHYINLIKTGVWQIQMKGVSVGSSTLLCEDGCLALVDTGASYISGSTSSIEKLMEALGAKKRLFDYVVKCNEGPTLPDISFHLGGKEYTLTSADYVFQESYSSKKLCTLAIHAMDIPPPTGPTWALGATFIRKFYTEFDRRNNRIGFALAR
Experiment: Inhibitory activity against human renin (fluorogenic peptide substrate)
Assay type: biochemical
Settings: 37° C. for 1 hour, read-out: IC50

IC50 [nM]	Structure (SMILES)
1	COC(=O)NCCCn1cc([C@H](C)N(C(=O)[C@H]2CNCCO2)C2CC2)c2ccc(C)nc21 [Example 50]
1.5	COCCCc1cn(C)c2ccc([C@@H](C)N(C(=O)[C@H]3CNCCO3)C3CC3)cc12 [Example 48]
3.5	COC(=O)NCCCn1nc([C@@H](C)N(C(=O)[C@H]2CNCCO2)C2CC2)c2ccc(CN(C)C)cc21 [Example 111]
8.9	COc1ccc([C@@H](C)N(C(=O)[C@H]2CNCCO2)C2CC2)cc1CCCNC(=O)C(F)(F)F [Example 67]
0.6	COC(=O)NCCCn1nc([C@@H](C)N(C(=O)[C@H]2CNCCO2)C2CC2)c2cccc(C)c21 [Example 62]
7.1	CNC(=O)NCCCn1nc([C@@H](C)N(C(=O)[C@H]2CNCCO2)C2CC2)c2ccc(C)cc21 [Example 28]
0.9	CCc1ccnc2c([C@@H](C)N(C(=O)[C@H]3CNCCO3)C3CC3)cn(CCCCOC)c12 [Example 79]
4.2	COCCCCn1cc([C@@H](C)N(C(=O)[C@H]2CNCCO2)C2CC2)c2nc(C)ccc21 [Example 56]
4.8	COC(=O)NCCCc1cc(OC)cc([C@@H](C)N(C(=O)[C@H]2CNCCO2)C2CC2)n1 [Example 87]

Same assay, conditions: 50% inhibitory concentration (IC50) against human renin, 37° C. for 1 hour

Structure (SMILES)	IC50 [nM]
COC(=O)NCCCn1cc([C@@H](C)N(C(=O)[C@H]2CNCCO2)C2CC2)nc1-c1ccc(C(F)(F)F)cc1 [Example 164]	0.6
COC(=O)NCc1cc([C@@H](C)N(C(=O)[C@H]2CNCCO2)C2CC2)nc2ccccc12 [Example 154]	2.4
COC(=O)NCCCn1cc([C@@H](C)N(C(=O)[C@H]2CNCCO2)C2CC2)c2ncc(Br)cc21 [Example 114]	1.1
COc1ccc(Cn2cc([C@@H](C)N(C(=O)[C@H]3CNCCO3)C3CC3)nc2-c2ccccc2)cc1 [Example 204]	7.1
CCCCCn1cc([C@@H](C)N(C(=O)[C@H]2CNCCO2)C2CC2)nc1-c1ccccc1 [Example 200]	4.5
CCc1cn(CCCOC)c2cc([C@@H](C)N(C(=O)[C@H]3CNCCO3)C3CC3)nc(CC)c12 [Example 152]	1.1
COc1ccc2nc([C@@H](C)N(C(=O)[C@H]3CNCCO3)C3CC3)cc(CCCNC(C)=O)c2c1 [Example 156]	2.1
COC(=O)NCCCc1cc([C@@H](C)N(C(=O)[C@H]2CNCCO2)C2CC2)nc2cc(F)c(F)cc12 [Example 143]	1.5
COC(=O)NCCCc1cc([C@@H](C)N(C(=O)[C@H]2CNCCO2)C2CC2)sc1-c1ccccc1 [Example 197]	0.2

Other lines, results leading:

IC50 [nM]	Structure (SMILES)
9.5	COC(=O)NCCCc1nc([C@@H](C)N(C(=O)[C@H]2CNCCO2)C2CC2)cnc1N(C)C [Example 442]
0.2	COC(=O)NCCCc1cc([C@@H](C)N(C(=O)[C@H]2CNCCO2)C2CC2)nn1C1CCCCC1 [Example 210]
0.5	COC(=O)NCCCc1cc([C@@H](C)N(C(=O)[C@H]2CNCCO2)C2CC2)nn1C(C)C [Example 225]
1.3	COC(=O)NCCCn1nc([C@@H](C)N(C(=O)[C@H]2CN[C@@H](COCc3ccccc3)CO2)C2CC2)c2ccc(C)nc21 [Example 257]
3.5	COC(=O)NCCCc1nc([C@@H](C)N(C(=O)[C@H]2CNCCO2)C2CC2)nn1-c1cccc(Cl)c1 [Example 365]
3.9	COC(=O)NCCCc1cc(C(C)N(C(=O)[C@H]2CNCCO2)C2CC2)sc1C(C)C (some centres unmarked) [Example 418]
0.3	COC(=O)NCCCc1cc([C@H](C)N(C(=O)[C@H]2CNC[C@@H](COc3ccccc3)O2)C2CC2)nn1C1CCOCC1 [Example 334]
0.9	COC(=O)NCCCn1cc([C@@H](C)N(C(=O)[C@H]2CN[C@@H](COCc3ccccc3)CO2)C2CC2)nc1C1CCOCC1 [Example 299]
3.7	CCc1nc([C@@H](C)N(C(=O)[C@H]2CN[C@@H](COC)CO2)C2CC2)cc2c1ncn2CCCOC [Example 393]
1.7	COC(=O)NCCCc1nc([C@@H](C)N(C(=O)[C@H]2CNCCO2)C2CC2)sc1-c1ccnc(C)c1 [Example 407]
1.6	COC(=O)NCCCc1cc([C@@H](C)N(C(=O)[C@H]2CN[C@@H](CC(F)F)CO2)C2CC2)cc(OC)n1 [Example 306]
0.5	COC(=O)NCCCn1nc([C@@H](C)N(C(=O)[C@H]2CN[C@@H](C)CO2)C2CC2)c2ccc(C)nc21 [Example 249]
3.5	COC(=O)NCCCn1nc([C@@H](C)N(C(=O)[C@H]2CNC[C@@H](C)O2)C2CC2)cc1C(C)(C)c1ccccc1 [Example 390]
0.7	COC(=O)NCCCn1cc([C@@H](C)N(C(=O)[C@H]2CNC[C@@H](CF)O2)C2CC2)nc1C1CCOCC1 [Example 404]
7.1	COC[C@H]1CO[C@@H](C(=O)N(C2CC2)[C@@H](C)c2cnc(OC)c(CCCNC(=O)OC)c2)CN1 [Example 309]
2	COC[C@H]1CO[C@@H](C(=O)N(C2CC2)[C@@H](C)c2cc(C3CCOCC3)n(CCCNC(=O)OC)n2)CN1 [Example 323]
1	COC(=O)NCCCc1cc([C@@H](C)N(C(=O)[C@H]2CNCCO2)C2CC2)sc1-c1cnc(N)nc1 [Example 409]
0.3	COC(=O)NCCCn1cc([C@@H](C)N(C(=O)[C@H]2CNC[C@@H](C)O2)C2CC2)nc1C(C)C [Example 245]
0.5	COC(=O)NCCCn1cc([C@@H](C)N(C(=O)[C@H]2CNC[C@@H](C)O2)C2CC2)nc1-c1ccccc1 [Example 230]
0.5	COC(=O)NCCCc1cc([C@@H](C)N(C(=O)[C@H]2CNCCO2)C2CC2)sc1-c1ccccc1C(=O)OC [Example 268]
0.4	COC(=O)NCCCn1nc([C@@H](C)N(C(=O)[C@H]2CN[C@@H](CCF)CO2)C2CC2)c2ccc(C)nc21 [Example 332]
4.2	COCCNc1ncc([C@@H](C)N(C(=O)[C@H]2CNCCO2)C2CC2)nc1CCCNC(=O)OC [Example 444]
3.4	COC(=O)NCCCc1nc([C@@H](C)N(C(=O)[C@H]2CNCCO2)C2CC2)sc1-c1ccccc1F [Example 417]
